In US20060172920A1, “Oxidised lipids as reversal agents for boronic acid drugs” (priority 2004, published 2006):
“And” between values parts separate entries of the source, which are not always exact repeats. Equal values may be shown once. Values belong to the compound of their own block, whether it stands above or below them.

What was measured:
[1] = test system: human thrombin; test: Total neutralising capacity towards peptide boronates (Method C); type: biochemical; details: for maximum number of boronate molecules destroyed by BLp: BLp in the absence of Cu2+
Experimental: Method C. 20 μl of TRI-50b dissolved in DMSO was added to 313 μl of bovine lipoprotein (diluted 1 in 10 in Buffer A, see method A above) to achieve a range of final concentrations of 164, 333, 490, 660, 820, 990, 1150, 1320 and 1480 μM, respectively. Samples were removed at timed intervals and diluted 1 in 20 with buffer A. The concentration of TRI-50b in 25 μl of this mixture was determined as described in Method A. Residual TRI-50b was determined from a standards curve. The change in concentration of TRI-50b was calculated by subtracting the residual concentration from the starting concentration.
BLp was incubated at 37° C. in the presence or absence of 1 mM cupric sulphate, Samples were taken at timed intervals and added to varying concentrations of TRI-50b up to 1.5 mM. The residual TRI-50 b was measured by Method C (Materials and Methods). —Cu^2+ […]-[…]; +Cu^2+ ▴-▴. In FIG. 10 are shown the results of an experiment in which the total mass of neutralising activity of bovine lipoprotein was determined. Increasing concentrations of TRI-50b up to 1.5 mM were added to a ten-fold dilution of the BLp fraction (OD280 nm=4.0). A rapid neutralisation of TRI-50b was observed reaching a maximum beyond which the neutralising capacity was totally exhausted. In the absence of Cu^2+, the maximum mass of TRI-50b that was neutralised was equivalent to 0.8 mM. The concentration of BLp in the mixture was 1.9 g/l or 0.0038 mM. Thus around 200 moles of TRI-50b were neutralised per mole of lipoprotein. In the presence of Cu^2+, the maximum mass of TRI-50b that was neutralised was higher and equivalent to 320 moles/mole.
A similar experiment was carried out with dilutions of plasma (FIG. 11). […] Plasma at varying dilutions was incubated at 37° C. in the presence of 1 mM cupric sulphate. Samples were taken at timed intervals and added to varying concentrations of TRI-50b up to 1.5 mM. The residual TRI-50 b was measured by Method C (Materials and Methods). 1 in 3, […]-[…]; 1 in 6, ▴-▴; 1 in 12, ▾-▾; 1 in 3 without Cu^2+, ▪-▪. […]
The low-density lipoprotein particle contains a single molecule of a 500 kDa protein and 1500 molecules of esterified cholesterol. […] Samples were taken at timed intervals and the residual TRI-50b concentration was determined by Method C (Materials and Methods).
In FIG. 13 are shown the observations made upon the neutralisation of a number of other peptide boronates by BLp added in the absence of Cu^2+, namely TRI-30, Z-D-Dpa-Pro-BoroMbg-Opin, TRI-26, Z-D-βNal-Pro-BoroIrg-Opin; TRI-142, Moc-D,L-Dpa-Pro-BoroMpg-Opinac. […] The residual concentration of boronate was determined by Method C (Materials and Methods).

[2] = test system: human thrombin; test: Quenching of TRI-50b neutralising activity by N-acetyl cysteine (Method B); type: biochemical
Experimental: Method B Method as A except that the measurement was made at a single time point. The incubation period was 20 minutes with plasma samples and 1 minute with the purified lipoproteins. Results are given as the overall percentage activity relative to a control without inhibitor. If lipid peroxides are involved in the inactivation then, the addition of n-acetyl-cysteine (NAC), a powerful anti-oxidant should reduce the neutralising activity. (NAC has been used historically to mop up reactive oxygen species). […] Plasma (1 in 10 dilution in buffer A) was incubated with 1.0 mM cupric sulphate for 4 hours. Increasing concentrations of n-acetyl cysteine were then added and also to BLp (1 in 10 dilution in buffer A). The neutralisation of TRI-50b was measured by Method B (Materials and Methods). Plasma, ▪-▪, BLp ▴-▴. A reduction in neutralising activity, to approximately base-line levels was observed when increasing concentrations of NAC were added to plasma or the bovine lipoprotein fraction (FIG. 14).

[3] = test system: normal human plasma; test: Ecarin clotting time in human plasma (Example 10, Method D); type: biochemical; details: 1-10 μM
Experimental: (§1) Ecarin was obtained from HTI (USA) whilst the normal human plasma was purchased from Precision Biologics via Alpha Laboratories (UK). Rat plasma was purchased from Harlan laboratories, UK.
(§2) TRI 50c was diluted in an assay buffer (100 mM sodium orthophoshate, 200 mM NaCl, 0.5% PEG 6000 and 0.02% sodium azide, pH 7.5) and incubated with normal human pooled or rat plasma (80% final) for 5 minutes at 37° C. Ecarin (100 μg/ml final) was added to the incubating solution. The clotting times were determined using a plate reader (Versamax, Molecular Devices Corporation) at 405 nm for up to 10 minutes at 37° C.

[4] = test system: rat plasma; test: Ecarin clotting time in rat plasma (Example 10, Method D); type: biochemical; details: 10 μM; fresh rat plasma
Experimental: as §1, §2

[5] = PBS pH 7.2; cited from earlier work
[6] = stored at −80° C.; cited from earlier work
[7] = target: T1, thrombin (Homo sapiens, UniProt P00734); test: Thrombin assay, reversal of TRI 50c inhibition (Example 10, Methods A-C); type: biochemical; details: final concentration; TRI 50c 1 μM; Method A
Experimental: 50 μl thrombin (33.3 ng/ml in assay buffer) and 20 μl vehicle or compound solution were added to 110 μl assay buffer (100 mM Na orthophosphate (80% Na2HPO4 and 20% NaH2PO4), 200 mM NaCl, 0.5% PEG 6000, 0.02% Na azide, pH 7.5) and incubated for 5 minutes at 37° C. […] Results are expressed as percentage change in thrombin activity. […] After the incubation period 100 μl of activated HDL (Method B) was added and further incubated for 30 minutes at 37° C.

[8] = target: T1, thrombin; test: Ki of hydrogen peroxide-treated TRI-50b against thrombin (Dixon plots); type: biochemical; details: after hydrogen peroxide (3.0%) 2 hours at RT
Experimental: The loss of activity of boropeptides when contacted with peroxide compounds was apparently due to the removal of the boronic acid moiety (as was observed upon treatment of TRI-50b with hydrogen peroxide). The boron provides at least four orders of binding energy to the peptide sequence because of the formation of a transition state-like adduct with the active site serine. […] 1 volume TRI-50b (15 mg/ml in DMSO) was added slowly to 10 volumes of hydrogen peroxide (3.0%) for 2 hours at RT. The Ki for inhibition of thrombin activity was carried out using Dixon plots. The initial rate of cleavage of S2302 (a chromogenic substrate for thrombin) by thrombin (28 nM) was determined at the different concentrations of substrate in the presence of varying concentrations of the oxidised inhibitor. This loss of binding energy was observed as a 20,000 fold increase in the Ki against thrombin (FIG. 15).

[9] = test system: thrombin clotting time; test: Example 11: TRI 50b and lipoprotein antidote in rat, thrombin clotting time; type: in vivo
Experimental: The efficacy of a new specific antidote towards the dynamic activity of TRI 50b was evaluated in a rat study (n=15) (Male and Female rats circa 250-300 g).
Male and female rats were anaesthetised and arterial blood sampling lines placed.
The antidote was prepared from a bovine lipoprotein following oxidation, ultrafiltration and Concentration.
The study was divided into three groups as follows: • TRI 50b alone at a dose of 2.0 mg/kg intravenously (0.8 ml/kg: Prepared in 25% ethanol/saline) • Antidote alone (5.0 ml/kg) • TRI 50b followed by administration of the antidote.
Blood samples were taken from an arterial line into 3.8% tri-sodium citrate and plasma prepared by centrifugation.
Dynamic activity of TRI 50b was assessed in plasma samples by measurement of the thrombin clotting time.
200 ml of Lipocell (Lipoprotein fraction, Intergen catalogue number 4505-01, Lot number WT18002) was incubated at 37° C. for 37 hours. The Lipocell was then concentrated by centrifugation. The sample contained in an Amicon Centriprep YM-3 centrifugal concentrator was spun at 3800 rpm in an IEC Centra 3C centrifuge for 30 minutes at RT. The concentrated samples were pooled and centrifuged twice more to a final volume of around 50 mls. The sample was stored at 4° C.

Compound: Moc-D,L-Dpa-Pro-BoroMpg-Opinac [TRI-142]
maximum number of boronate molecules destroyed by BLp [1]: around 65 moles/mole

IC50 ([2]; BLp (1 in 10 dilution)): ~2000 µM
IC50 ([2]; oxidised plasma (1 in 10, 1.0 mM cupric sulphate 4 hours)): ~100 µM
Compound: CC(=O)NC(CS)C(=O)O (stereo not shown) [NAC, n-acetyl-cysteine]

Compound: Z-D-βNal-Pro-BoroIrg-Opin [TRI-26]
maximum number of boronate molecules destroyed by BLp [1]: around 65 moles/mole

Compound: Z-D-Dpa-Pro-BoroMbg-Opin [TRI-30]
maximum number of boronate molecules destroyed by BLp [1]: around 80 moles/mole

Compound: COCCC[C@H](NC(=O)[C@@H]1CCCN1C(=O)[C@@H](Cc1ccccc1)NC(=O)OCc1ccccc1)B(O)O [TRI 50c, Cbz-(R)-Phe-(S)-Pro-(R)-Mpg-B(OH)2]
prolongation of ECT [3]: concentration dependent prolongation
ECT [4]: approximately 215 seconds

Compound: cholesteryl linoleate hydroperoxide
equivalence of TRI-50b neutralisation ([1]; 44 μM hydroperoxide mixed with TRI-50b): approximately 1 mole/mole
solubility in aqueous buffers [5]: < 20 µg/mL
storage stability [6]: stable for at least six months

Compound: O=S(=O)([O-])[O-].[Cu+2] [CuSO4, copper sulphate]
concentration that began to reduce the inhibitory activity of TRI 50c [7]: greater than 50 μM

Compound: COCCC[C@H](NC(=O)[C@@H]1CCCN1C(=O)[C@@H](Cc1ccccc1)NC(=O)OCc1ccccc1)B1OC(C)(C)C(C)(C)O1 [TRI 50b, Cbz-(R)-Phe-Pro-BoroMpg-OPinacol]
increase in the Ki against thrombin [8]: 20,000 fold
elevation of thrombin clotting time over base line ([9]; 2.0 mg/kg intravenously, two minutes post dose): 5.6 times base line
thrombin clotting time (TT) ([9]; 2.0 mg/kg iv, 30 minutes post dose): 36 s
time for thrombin clotting time to return to base line ([9]; 2.0 mg/kg iv, post dose): ≤ 60 min
thrombin clotting time ([9]; 2.0 mg/kg iv, two minutes post dose): 128 s and 138 s
